Test results published in ChEMBL document CHEMBL1146154, “Inhibitors of Plasmepsin II-potential antimalarial agents” (Bioorg Med Chem Lett, 2006).
pIC50: −log10 of the molar value.

The compounds below were run against Plasmepsin II (Plasmodium falciparum, UniProt P46925) (assay: Inhibition of PM2 by FRET assay).
Sequence of Plasmepsin II (P46925 whole entry): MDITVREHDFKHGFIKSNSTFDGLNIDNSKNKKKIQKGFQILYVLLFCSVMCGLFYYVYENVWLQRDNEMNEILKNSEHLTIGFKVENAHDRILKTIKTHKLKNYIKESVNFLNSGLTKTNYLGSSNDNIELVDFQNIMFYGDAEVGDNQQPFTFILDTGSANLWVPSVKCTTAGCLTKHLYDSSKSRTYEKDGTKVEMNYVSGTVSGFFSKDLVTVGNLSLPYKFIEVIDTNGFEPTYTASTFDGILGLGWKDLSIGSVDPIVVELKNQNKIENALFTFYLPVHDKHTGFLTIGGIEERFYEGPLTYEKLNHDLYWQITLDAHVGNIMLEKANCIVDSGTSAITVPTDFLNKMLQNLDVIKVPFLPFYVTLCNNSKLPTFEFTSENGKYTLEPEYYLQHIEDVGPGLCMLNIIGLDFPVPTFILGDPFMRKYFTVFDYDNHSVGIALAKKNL

SMILES | pIC50
CCCCCc1ccc(C(=O)N(CCN(CCCC)CCCC)Cc2ccc(N3CCCCC3)cc2)cc1 | 6.43
CCCCCc1ccc(C(=O)N(CCN(CC)CC)Cc2ccc(-c3ccc4c(c3)OCO4)cc2)cc1 | 5.82
CCCCCc1ccc(C(=O)N(CCN(CCCC)CCCC)Cc2ccc(Nc3ccccc3)cc2)cc1 | 6.65
CCCCCc1ccc(C(=O)N(CCN(CCCC)CCCC)Cc2ccc(N(C)Cc3ccccc3)cc2)cc1 | 6.54
CCCCCc1ccc(C(=O)N(CCN(CCCC)CCCC)Cc2ccc(-c3ccncc3)nc2)cc1 | 6.19
CCCCCc1ccc(C(=O)N(CCN(CCC)CCC)Cc2ccc(-c3ccc4c(c3)OCO4)cc2)cc1 | 6.27
CCCCCc1ccc(C(=O)N(CCN(CCCC)CCCC)Cc2ccc(-c3ccccn3)nc2)cc1 | 6.13
CCCCCc1ccc(C(=O)N(CCN(CC)CCN(CC)CC)Cc2ccc(-c3ccc4c(c3)OCO4)cc2)cc1 | 6.36
CCCCCc1ccc(C(=O)N(CCN(CCCC)CCCC)Cc2ccc(-c3ccccc3)cc2)cc1 | 6.84
CCCCCc1ccc(C(=O)N(CCN(CCCC)CCCC)Cc2ccc(-c3ccc(CC(=O)N(C)Cc4ccccc4)cc3)cc2)cc1 | 7.04
CCCCCc1ccc(C(=O)N(CCN(CCCC)CCCC)Cc2ccc(NCc3ccccc3)cc2)cc1 | 6.37
CCCCCc1ccc(C(=O)N(CCN(CCCC)CCCC)Cc2ccc(-c3cccnc3)nc2)cc1 | 6.23
CCCCCc1ccc(C(=O)N(CCN(CCCC)CCCC)Cc2ccc(-c3cccnc3)cn2)cc1 | 5.28
CCCCCc1ccc(C(=O)N(CCN(CCCC)CCCC)Cc2ccc(N(C)c3ccccc3)cc2)cc1 | 6.24
CCCCCc1ccc(C(=O)N(CCN(CCCC)CCCC)Cc2ccc(Nc3ccncc3)cc2)cc1 | 5.74
CCCCCc1ccc(C(=O)N(CCN(CCCC)CCCC)Cc2ccc(-c3cncnc3)cn2)cc1 | 5.07
CCCCCc1ccc(C(=O)N(CCN(CCCC)CCCC)Cc2ccc(-c3ccc4c(c3)OCO4)cc2)cc1 | 7.00
CCCCCc1ccc(C(=O)N(CCCc2ccccc2)C2CCN(Cc3ccccc3)CC2)cc1 | 5.77
CCCCCc1ccc(C(=O)N(CCN(CCCC)CCCC)Cc2ccc(NC(=O)C3CCNCC3)cc2)cc1 | 6.33
CCCCCc1ccc(C(=O)N(CCN(CCCC)CCCC)Cc2ccc(-c3ccc(C(=O)N(C)C)cc3)cc2)cc1 | 7.11
CCCCCc1ccc(C(=O)N(CCN(CCCC)CCCC)Cc2ccc(-c3ccncc3)cn2)cc1 | 5.34
CCCCCc1ccc(C(=O)N(CCN(CCCC)CCCC)Cc2ccc(N3CCN(c4ccccc4)CC3)cc2)cc1 | 6.70
CCCCCc1ccc(C(=O)N(CCN2CCC(Cc3ccccc3)CC2)Cc2ccc(-c3ccc4c(c3)OCO4)cc2)cc1 | 6.72
CCCCCc1ccc(C(=O)N(CCN(CCCC)CCCC)Cc2ccc(-c3cncnc3)nc2)cc1 | 5.65
CCCCCc1ccc(C(=O)N(CCN(CCCC)CCCC)Cc2ccc(-c3ccc(C(=O)NCc4ccccc4)cc3)cc2)cc1 | 7.14
CCCCCc1ccc(C(=O)N(CCN(CCCC)CCCC)Cc2ccc(-c3ccc4c(c3)OCO4)cn2)cc1 | 5.72
CCCCCc1ccc(C(=O)N(CCN(C(C)C)C(C)C)Cc2ccc(-c3ccc4c(c3)OCO4)cc2)cc1 | 5.82

SMILES | pIC50
CCCCCc1ccc(C(=O)N(CCN(CCCC)CCCC)Cc2ccc(-n3ccc4ccccc43)cc2)cc1 | 6.17
CCCCCc1ccc(C(=O)N(CCN(CCCC)CCCC)Cc2ccc(-c3ccncc3)cc2)cc1 | 6.67
CCCCCc1ccc(C(=O)N(CCN(CCCC)CCCC)Cc2ccc(-c3ccc(CC(=O)NCc4ccccc4)cc3)cc2)cc1 | 7.34
CCCCCc1ccc(C(=O)N(CCN(CCCC)CCCC)Cc2ccc(NC(=O)C3CCCNC3)cc2)cc1 (centres undefined) | 6.69
CCCCCc1ccc(C(=O)N(CCN2CCC(CCCc3ccccc3)CC2)Cc2ccc(-c3ccc4c(c3)OCO4)cc2)cc1 | 6.78
CCCCCc1ccc(C(=O)N(Cc2ccc(-c3ccc(CC(=O)OC)cc3)cc2)C2CCN(CCC(C)C)CC2)cc1 | 8.22
CCCCCc1ccc(C(=O)N(CCN(CCCC)CCCC)Cc2ccc(N3CCSCC3)cc2)cc1 | 6.73
CCCCCc1ccc(C(=O)N(CCN(CCCC)CCCC)Cc2ccc(-c3ccccc3)cn2)cc1 | 5.63
CCCCCc1ccc(C(=O)N(CCN(CCCC)CCCC)Cc2ccc(-c3cccnc3)cc2)cc1 | 6.43
CCCCCc1ccc(C(=O)N(CCN(CCCC)CCCC)Cc2ccc(-c3ccc4c(c3)OCO4)nc2)cc1 | 6.36
CCCCCc1ccc(C(=O)N(CCN(CCCC)CCCC)Cc2ccc(-n3cccc3)cc2)cc1 | 6.62
CCCCCc1ccc(C(=O)N(CCN(CCCC)CCCC)Cc2ccc(-c3ccc(OCCO)cc3)cc2)cc1 | 6.29
CCCCCc1ccc(C(=O)N(CCN(CCCC)CCCC)Cc2ccc(-c3cncnc3)cc2)cc1 | 6.27
CCCCCc1ccc(C(=O)N(CCN(CCCC)CCCC)Cc2ccc(-c3ccc(CC(=O)N4CCOCC4)cc3)cc2)cc1 | 7.13
CCCCCc1ccc(C(=O)N(CCN(CCCC)CCCC)Cc2ccc(N(C)c3ccncc3)cc2)cc1 | 5.52
CCCCCc1ccc(C(=O)N(CCN(CCCC)CCCC)Cc2ccc(-c3ccc(CC(=O)OC)cc3)cc2)cc1 | 6.74
CCCCCc1ccc(C(=O)N(CCN(CCCC)CCCC)Cc2ccc(-c3ccc(C(=O)N4CCSCC4)cc3)cc2)cc1 | 7.25
CCCCCc1ccc(C(=O)N(CCN2CCCCC2)Cc2ccc(-c3ccc4c(c3)OCO4)cc2)cc1 | 6.48
CCCCCc1ccc(C(=O)N(CCN(CCCC)CCCC)Cc2ccc(N(CC)CC)cc2)cc1 | 5.83
CCCCCc1ccc(C(=O)N(CCN(CCCC)CCCC)Cc2ccc(N3CCN(Cc4ccccc4)CC3)cc2)cc1 | 6.19
CCCCCc1ccc(C(=O)N(CCN(CCCC)CCCC)Cc2ccc(-c3ccc(CC(=O)O)cc3)cc2)cc1 | 6.33
CCCCCc1ccc(C(=O)N(CCN(CCCC)CCCC)Cc2ccc(NC(=O)c3cnccn3)cc2)cc1 | 6.61
CCCCCc1ccc(C(=O)N(CCN2CCOCC2)Cc2ccc(-c3ccc4c(c3)OCO4)cc2)cc1 | 5.54
CCCCCc1ccc(C(=O)N(CCN(CCO)Cc2ccccc2)Cc2ccc(-c3ccc4c(c3)OCO4)cc2)cc1 | 6.48
CCCCCc1ccc(C(=O)N(CCN(CCCC)CCCC)Cc2ccc(-c3ccccc3)nc2)cc1 | 6.23
CCCCCc1ccc(C(=O)N(CCN(CCCC)CCCC)Cc2ccc(NC(=O)c3ccnc(OC)c3)cc2)cc1 | 6.81
CCCCCc1ccc(C(=O)N(CCN(CCCC)CCCC)Cc2ccc(N3CCN(C)CC3)cc2)cc1 | 5.59

Each compound was assayed on Plasmodium falciparum (assay: Antimalarial activity against Plasmodium falciparum infected human RBC).
Type: functional, organism-based

SMILES | pIC50
CCCCCc1ccc(C(=O)N(CCN(CCCC)CCCC)Cc2ccc(N3CCCCC3)cc2)cc1 | 6.20
CCCCCc1ccc(C(=O)N(CCN(CCCC)CCCC)Cc2ccc(Nc3ccccc3)cc2)cc1 | 6.27
CCCCCc1ccc(C(=O)N(CCN(CCCC)CCCC)Cc2ccc(N(C)Cc3ccccc3)cc2)cc1 | 6.22
CCCCCc1ccc(C(=O)N(CCN(CCCC)CCCC)Cc2ccc(-c3ccncc3)nc2)cc1 | 6.34
CCCCCc1ccc(C(=O)N(CCN(CCCC)CCCC)Cc2ccc(-c3ccccn3)nc2)cc1 | 6.39
CCCCCc1ccc(C(=O)N(CCN(CCCC)CCCC)Cc2ccc(-c3ccccc3)cc2)cc1 | 5.61
CCCCCc1ccc(C(=O)N(CCN(CCCC)CCCC)Cc2ccc(-c3ccc(CC(=O)N(C)Cc4ccccc4)cc3)cc2)cc1 | 6.14
CCCCCc1ccc(C(=O)N(CCN(CCCC)CCCC)Cc2ccc(NCc3ccccc3)cc2)cc1 | 6.16
CCCCCc1ccc(C(=O)N(CCN(CCCC)CCCC)Cc2ccc(-c3cccnc3)nc2)cc1 | 6.34
CCCCCc1ccc(C(=O)N(CCN(CCCC)CCCC)Cc2ccc(-c3cccnc3)cn2)cc1 | 6.33
CCCCCc1ccc(C(=O)N(CCN(CCCC)CCCC)Cc2ccc(N(C)c3ccccc3)cc2)cc1 | 6.21
CCCCCc1ccc(C(=O)N(CCN(CCCC)CCCC)Cc2ccc(Nc3ccncc3)cc2)cc1 | 6.68
CCCCCc1ccc(C(=O)N(CCN(CCCC)CCCC)Cc2ccc(-c3cncnc3)cn2)cc1 | 6.19
CCCCCc1ccc(C(=O)N(CCN(CCCC)CCCC)Cc2ccc(-c3ccc4c(c3)OCO4)cc2)cc1 | 5.92
CCCCCc1ccc(C(=O)N(CCN(CCCC)CCCC)Cc2ccc(NC(=O)C3CCNCC3)cc2)cc1 | 6.26
CCCCCc1ccc(C(=O)N(CCN(CCCC)CCCC)Cc2ccc(-c3ccc(C(=O)N(C)C)cc3)cc2)cc1 | 6.07
CCCCCc1ccc(C(=O)N(CCN(CCCC)CCCC)Cc2ccc(-c3ccncc3)cn2)cc1 | 6.20
CCCCCc1ccc(C(=O)N(CCN(CCCC)CCCC)Cc2ccc(N3CCN(c4ccccc4)CC3)cc2)cc1 | 5.89
CCCCCc1ccc(C(=O)N(CCN(CCCC)CCCC)Cc2ccc(-c3cncnc3)nc2)cc1 | 6.25
CCCCCc1ccc(C(=O)N(CCN(CCCC)CCCC)Cc2ccc(-c3ccc(C(=O)NCc4ccccc4)cc3)cc2)cc1 | 6.25
CCCCCc1ccc(C(=O)N(CCN(CCCC)CCCC)Cc2ccc(-c3ccc4c(c3)OCO4)cn2)cc1 | 6.16
CCCCCc1ccc(C(=O)N(CCN(CCCC)CCCC)Cc2ccc(-n3ccc4ccccc43)cc2)cc1 | 6.13
CCCCCc1ccc(C(=O)N(CCN(CCCC)CCCC)Cc2ccc(-c3ccncc3)cc2)cc1 | 6.23

SMILES | pIC50
CCCCCc1ccc(C(=O)N(CCN(CCCC)CCCC)Cc2ccc(-c3ccc(CC(=O)NCc4ccccc4)cc3)cc2)cc1 | 6.47
CCCCCc1ccc(C(=O)N(CCN(CCCC)CCCC)Cc2ccc(NC(=O)C3CCCNC3)cc2)cc1 (centres undefined) | 6.42
CCCCCc1ccc(C(=O)N(Cc2ccc(-c3ccc(CC(=O)OC)cc3)cc2)C2CCN(CCC(C)C)CC2)cc1 | 8.74
CCCCCc1ccc(C(=O)N(CCN(CCCC)CCCC)Cc2ccc(N3CCSCC3)cc2)cc1 | 5.76
CCCCCc1ccc(C(=O)N(CCN(CCCC)CCCC)Cc2ccc(-c3ccccc3)cn2)cc1 | 6.16
CCCCCc1ccc(C(=O)N(CCN(CCCC)CCCC)Cc2ccc(-c3cccnc3)cc2)cc1 | 6.56
CCCCCc1ccc(C(=O)N(CCN(CCCC)CCCC)Cc2ccc(-c3ccc4c(c3)OCO4)nc2)cc1 | 6.17
CCCCCc1ccc(C(=O)N(CCN(CCCC)CCCC)Cc2ccc(-n3cccc3)cc2)cc1 | 6.08
CCCCCc1ccc(C(=O)N(CCN(CCCC)CCCC)Cc2ccc(-c3ccc(OCCO)cc3)cc2)cc1 | 5.44
CCCCCc1ccc(C(=O)N(CCN(CCCC)CCCC)Cc2ccc(-c3cncnc3)cc2)cc1 | 5.65
CCCCCc1ccc(C(=O)N(CCN(CCCC)CCCC)Cc2ccc(-c3ccccn3)cc2)cc1 | 5.76
CCCCCc1ccc(C(=O)N(CCN(CCCC)CCCC)Cc2ccc(-c3ccc(CC(=O)N4CCOCC4)cc3)cc2)cc1 | 6.05
CCCCCc1ccc(C(=O)N(CCN(CCCC)CCCC)Cc2ccc(N(C)c3ccncc3)cc2)cc1 | 6.34
CCCCCc1ccc(C(=O)N(CCN(CCCC)CCCC)Cc2ccc(-c3ccc(CC(=O)OC)cc3)cc2)cc1 | 5.61
CCCCCc1ccc(C(=O)N(CCN(CCCC)CCCC)Cc2ccc(-c3ccc(C(=O)N4CCSCC4)cc3)cc2)cc1 | 6.12
CCCCCc1ccc(C(=O)N(CCN(CCCC)CCCC)Cc2ccc(N(CC)CC)cc2)cc1 | 6.26
CCCCCc1ccc(C(=O)N(CCN(CCCC)CCCC)Cc2ccc(N3CCN(Cc4ccccc4)CC3)cc2)cc1 | 6.10
CCCCCc1ccc(C(=O)N(CCN(CCCC)CCCC)Cc2ccc(-c3ccc(CC(=O)O)cc3)cc2)cc1 | 5.15
CCCCCc1ccc(C(=O)N(CCN(CCCC)CCCC)Cc2ccc(NC(=O)c3cnccn3)cc2)cc1 | 6.22
CCCCCc1ccc(C(=O)N(CCN(CCCC)CCCC)Cc2ccc(-c3ccccc3)nc2)cc1 | 6.22
CCCCCc1ccc(C(=O)N(CCN(CCCC)CCCC)Cc2ccc(NC(=O)c3ccnc(OC)c3)cc2)cc1 | 6.21
CCCCCc1ccc(C(=O)N(CCN(CCCC)CCCC)Cc2ccc(N3CCN(C)CC3)cc2)cc1 | 6.37
